In a melting point compilation (Tetko et al.; mined from patent text by program, amines drawn as free bases though some values may be those of a salt):

Row | melting point [°C] | Structure (SMILES)
1 | 160 to 165 | CCN1C(=O)C(C)(C)C(=O)N(C)c2cc(CN(CCn3ccc4oc(C)cc4c3=O)CCn3ccc4oc(C)cc4c3=O)ccc21
2 | 115 to 117 | C#CCOc1ccc(C(=O)C=Cc2ccccc2)c(O)c1
3 | 146 to 147 | CCC(O)C(=O)Nc1c(C)c(C)c2c(c1C)C(c1ccc(C(C)C)cc1)CO2 (stereo unspecified)
4 | 160 to 161 | CCOC(=O)N(CCNc1ccc2ncc(Br)n2n1)c1ccccc1
5 | 115 to 117 | CCOC(=O)C(=CNc1ncnc2ccccc12)C(=O)OCC
6 | 242 to 243 | Fc1ccc(-c2nc(-c3ccc(CN4CCOCC4)cc3)[nH]c2-c2ccncc2)cc1
7 | 165 to 166 | O=C(O)c1cccc(CSCCNC(=O)c2c(Cl)cccc2Cl)c1
8 | 98 to 105 | CCCCC1c2sccc2CCN1CCNC(=O)c1ccc(NS(C)(=O)=O)cc1 (stereo unspecified)
9 | 93 to 94 | C=CCOc1ccc(-c2ccc(Cl)nn2)c(OCC(O)CNC(C)(C)C)c1 (stereo unspecified)
10 | 165 | COc1ccc(C=N[C@H]2C(O)O[C@H](CO)[C@@H](O)[C@@H]2O)cc1 (stereo partly specified)
11 | 96 to 98 | COc1ccc(CS(=O)(=O)CC(=O)O)cc1[N+](=O)[O-]
12 | 202 to 205 | C#CCNC(=O)C(C#N)=C1CC(C)(C)c2cc(OC)c(OC)cc21
13 | 68 | BrCCCCCCC1(CCCCCCBr)c2cc(Br)ccc2-c2ccc(Br)cc21
14 | 86 to 90 | COc1cc(Nc2nccc(-c3ccc(NCCCO)cc3)n2)cc(OC)c1OC
15 | 198 to 199 | CC12CCC3C(CCC4CC(O)CCC43C)C1CC=C2c1cccnc1 (stereo unspecified)
16 | 55 to 56 | Cc1ccc(C)n1-c1cc(F)cc(F)c1
17 | 256 | CNc1nc2ccncc2[nH]1
18 | 52 to 54 | CCCc1nn(C)c2c(=O)n(CCCOc3ccc(SC(C)(C)C(=O)OCC)cc3)c(C)nc12
19 | 320 to 325 | CC1(C)C(=O)Nc2cc3[nH]c(-c4ccc(Cl)c(Cl)c4)nc3cc21
20 | 124 to 126 | C=C(C1=C(CCC(=O)O)C(O)CC1O)c1ccccc1 (stereo unspecified)
21 | 240 to 248 | CS(=O)(=O)Nc1cccc(CNC(=O)c2nc3ccccc3c(=O)[nH]2)c1
22 | 278 to 280 | CNS(=O)(=O)c1ccc(-c2cnc3[nH]cc(C(=O)C(C)(C)C)c3n2)cc1
23 | 153 to 154 | O=C1N(CC2CCCCC2)c2ccccc2C12COc1cc3c(cc12)OCO3 (stereo unspecified)
24 | 174 to 176 | C#CCC(O)(c1cncnc1)C(C)(C)C (stereo unspecified)

Row | melting point [°C] | Structure (SMILES)
25 | 138 to 140 | CCNC(=S)NS(=O)(=O)N1CCC(CCNC(=O)c2cc(Cl)ccc2OC)CC1
26 | 93 to 94 | CCOc1c(C=NOCc2ccccc2)c(=O)n(C)c(=O)n1C
27 | 165 | FC(F)(F)c1nc2ccc(Cn3ccnc3)cc2n1CC1CCCCC1
28 | 66 to 76 | CC1(C(=O)N2C[C@H](Sc3ccc(OCC(F)(F)F)cc3C(F)(F)F)C[C@H]2C(=O)NC2(C#N)CC2)CC1
29 | 97 to 98 | CC(C)c1c(C=C(Cl)Cl)c(-c2ccc(F)cc2)n2c1CCCC2
30 | 122 | Cc1cccc(C(O)CSC(=S)Nc2ccc(Cl)cn2)c1 (stereo unspecified)
31 | 165 to 180 | CC(NC(=O)c1c[nH]c2ncc(-c3nn(CC(O)CO)c4cc(Cl)ccc34)nc12)C(=O)N1CC(C#N)C1 (stereo unspecified)
32 | 196 to 205 | O=C(c1ccccc1)c1ccc2c([N+](=O)[O-])c(O)c(O)cc2c1
33 | 163 to 165 | O=C(Nc1c(C(O)(C(F)(F)F)C(F)(F)F)ccc2ccccc12)C1CC1
34 | 89 to 90 | COC(=O)C(O)C(CC(C)C)NCc1ccccc1 (stereo unspecified)
35 | 89 to 90 | COC(=O)C=Cc1cccc(NC(=O)c2cccn2C)c1
36 | 170 | Cc1cc(OCc2nc(-c3ccc(C(F)(F)F)cc3)no2)ccc1OC(C)(C)C(=O)O
37 | 126 to 128 | COC(=O)c1ccc(OCCC2CC(=O)N(c3ccc(Cl)cc3)C2)cc1 (stereo unspecified)
38 | 152 to 154 | CC(=O)SC(C(=O)c1ccccc1)C(C)C(=O)N1C(c2cccc(C(F)(F)F)c2)SC[C@H]1C(=O)O (stereo partly specified)
39 | 111 to 113 | CCOC(=O)c1c(N(C)CCO)c2ccc(C)nc2n(CC)c1=O
40 | 80 to 82 | CCOC(=O)COCc1nnc(S)s1
41 | 182 to 185 | CN(CCN(C)c1nc2ccccc2n1Cc1ccc(F)cc1)C(=O)OC(C)(C)C
42 | 204 | CCc1ccnc(C(=O)c2[nH]c3ccc(C(F)(F)F)cc3c2CC(=O)O)c1
43 | 138 to 139 | COc1ccc(-n2nc(C(=O)c3ccccc3)cc2-c2ccc(C)cc2)cc1
44 | 156 to 159 | CS(=O)(=O)c1ccc(-n2cc(-c3cccc(Cl)c3)nc2-c2ccc(Cl)cc2)cc1
45 | 100 to 101 | O=c1c(C(F)(F)F)cn(Cc2ccccc2)c(=O)n1CCCCl
46 | 100 | CCOC(=O)C(C#N)=C(Nc1ccc(N(CC)CC)cc1)SC
47 | 201 to 203 | CC(=O)OC12Oc3cc(C(C)C)ccc3C1(OC(C)=O)C(=O)c1c(N)cccc12 (stereo unspecified)
48 | 183 to 185 | OCc1ccc2c(c1)ncn2-c1cccc(-c2cccnc2)c1

Row | melting point [°C] | Structure (SMILES)
49 | 138 | CCc1noc(-c2ccc(O)cc2)n1
50 | 265 to 266 | O=C1Nc2cccc(-c3cccc(NC(=O)c4cccc([N+](=O)[O-])c4)c3)c2/C1=C/c1ccc[nH]1
51 | 170 to 172 | COC(=O)c1cc2cc(C)ccc2nn1
52 | 108 to 111 | CCOC(=O)COc1ccc2c(c1)C[C@@H](NC[C@H](O)c1ccccc1)CC2
53 | 76 to 79 | CCC1(CC)C(=O)ON(C(=O)c2ccccc2)C1=O
54 | 140 to 142 | N#CC(C#N)=CN(N=C(C#N)C#N)c1ccc(F)cc1F
55 | 82 to 84 | CCC(O)(c1ccc(-c2ccccc2)cc1)C1CC=CC1 (stereo unspecified)
56 | 83 to 84 | O=C(c1ccc(F)cc1)c1ccc([N+](=O)[O-])cc1Cl
57 | 199 to 200 | CC(=O)Nc1nc(CCc2ccc(NC(=O)OC(C)(C)C)cc2)c(C(=O)Nc2ccccc2)s1
58 | 189 to 193 | O=C(O)C(CBr)(CBr)COCC(CBr)(CBr)C(=O)O
59 | 120 to 122 | COc1cc(N2CCCCC2)c(Cl)cc1CC(=O)O
60 | 170 to 171 | CC(C)(C)OC(=O)N1CCCc2onc(O)c2C1
61 | 77 | CC(C)(C)OC(=O)c1ccc2cncn2c1
62 | 195 to 196 | NC(=O)C=Cc1cc2c(Oc3ccc(Br)cc3)cncc2s1
63 | 213 to 215 | O=C(CBr)Nc1ccc(O)cc1C(=O)O
64 | 112 to 113 | Cn1nc(CBr)cc1C(=O)NCCc1ccccc1
65 | 350 to 370 | Cc1c(-c2cccc(C#N)c2F)sc2nc(N)[nH]c(=O)c12
66 | 242 | CCC(=O)NS(=O)(=O)c1cccc(-c2cc(-c3nc(-c4ccc(C(F)(F)F)nc4)cc(C(F)(F)F)n3)ccn2)c1
67 | 189 to 191 | Cc1ccc(OC2CCN(C(=O)CNc3ccc4[nH]c(=O)sc4c3)CC2)cc1
68 | 120 to 122 | COc1cc(C(=O)NS(=O)(=O)Cc2ccccc2C(F)(F)F)nc(C)n1
69 | 155 to 157 | O=C(O)c1cc(-c2ccccc2C(F)(F)F)nc(C(F)(F)F)c1
70 | 206 to 208 | CC1NC(=O)NN=C1c1cccc(Cl)c1 (stereo unspecified)
71 | 139 to 142 | CCOC(=O)CCCCC(=O)c1ccc2cc(O)ccc2c1
72 | 107 to 108 | CCc1nc(-c2cccc(C)c2)c(-c2ccnc(NC(=O)Cc3ccccc3)c2)s1

Row | melting point [°C] | Structure (SMILES)
73 | 178 to 180 | CCCc1nc2c(N)nc3ccccc3c2n1CC(C)(C)CC(C)=O
74 | 178 to 181 | Ic1ccc(-c2nc3ccccc3n2-c2ccccc2)cc1
75 | 86 to 87 | CCCCCCCCCCCCCCCCc1nc(N(C)C)nc(C)c1O
76 | 184 to 185 | CCCc1nc2c(n1Cc1ccc(-c3ccccc3-c3nnn[nH]3)cc1)C(C(=O)OCC)N(C(C)=O)CC2 (stereo unspecified)
77 | 169 to 170 | CN1CCSC1=NC(=S)Nc1ccccc1
78 | 128 to 130 | CC(=NOCCOc1ccc(C[C@H](Oc2ccc(C)cc2)C(=O)O)cc1)c1ccc(-c2ccccc2)cc1
79 | 85 to 88 | Nc1ncnc2c1ncn2[C@H]1C[C@@H](CO)C1
80 | 267 to 269 | Nc1ncccc1-c1nc2ccc(-c3cn[nH]c3)nc2n1-c1ccc(CNC(=O)c2cccc(F)c2)cc1
81 | 105 to 108 | C=CCOc1ccc(Nc2nccc(-c3cccnc3)n2)cc1
82 | 120 to 121 | CC(=O)c1c(CN2CCOCC2)[nH]c2ccc(Cl)cc12
83 | 68 to 70 | Cn1c(C(F)(F)F)cc(=O)n(-c2c(F)cc(Cl)c3nc(C(C)(C)C)oc23)c1=O
84 | 194 to 196 | CC(C#N)=C1CCN(c2ccc(N3C[C@H](CNC(=O)CC#N)OC3=O)cc2F)CC1
85 | 132 to 134 | Cc1ccc(Cl)cc1N1C(=O)CN(C)C1=S
86 | 202 to 204 | CCOC(=O)c1ccc(CCc2cnc3[nH]c(N)nc(N)c2-3)cc1
87 | 143 to 144 | O=C(CCCCOc1ccc(C2=NCCO2)cc1)c1ccc(Cl)s1
88 | 170 to 173 | O=C(O)C1=Cc2cc(S(=O)(=O)NCc3ccco3)ccc2OC1C(F)(F)F (stereo unspecified)
89 | 149 | CC(C)c1ccc(S(=O)(=O)Nc2ccc(Cl)cc2I)cc1
90 | 96 to 97 | CCCn1ccc(=O)c(OC(=O)NCC(=O)OCC)c1C
91 | 131 to 132 | Nc1cc(C(=O)c2ccc(F)c(N)c2)ccc1F
92 | 76 to 79 | CCC(=O)CCSc1cc(C(C)(C)C)c(O)c(C(C)(C)C)c1
93 | 62 to 64 | C=CCN1C(=O)C(C)N(c2ccc(Cc3ccccc3)cc2)C1=S (stereo unspecified)

Row | Structure (SMILES) | melting point [°C]
94 | CNc1n[nH]c(=O)n1N | 214
95 | CC(=O)N1CC(CCN2CC=C(c3c[nH]c4cc(Cl)ccc34)CC2)c2cc(C)ccc21 (stereo unspecified) | 179 to 181
96 | OC(CCCN1CC=C(c2ccccc2)CC1)c1ccc(Cc2ccc(Cl)cc2)cc1 (stereo unspecified) | 108 to 111
97 | CC12CCC3C(CC=C4CC(C(=O)CBr)CCC43C)C1CCC2=O (stereo unspecified) | 150
98 | CN1Cc2c(C(=O)OCC3CC3)ncn2-c2ccc(F)cc2C1=O | 156 to 157
99 | CN1CC[C@@H]2CC(=O)c3cc(F)ccc3[C@H]2C1 (relative stereo) | > 250
100 | CCC(=O)N1N=C(c2ccc(N)cc2)c2cc(C)ccc2CC1C (stereo unspecified) | 166 to 168
101 | CCn1cc(C(=O)O)c2ccc(Cl)cc21 | 225 to 227
